This assay concerns RS virus. Description: Evaluation of anti-RS viral activity (MTT assay kit; viable cell count of RS virus-infected Hep2 cells). It counts as cell-based, RS virus (human respiratory syncytial virus). As to conditions: for viability at 80 µM / viability at 16 µM: human respiratory syncytial virus, read-out: Survival Rate (%). The protocol: The aforementioned Compound 1 (No. 150) to Compound 22 (No. 306) were measured for anti-RS viral activity according to the protocol of MTT assay kit (CellTiter-Glo (registered trade name) Assay, Promega Corporation).
In a 96-well plate, Hep2 cells were seeded at 1×10^3 cells per well, and each of compounds in the amount shown in Table 7, and RS virus having an infectivity titer of 1 MOI were added, and cultured for 72 hours, and then a viable cell count was determined. As a control, a well containing DMSO at 25 μM (when the additive amount of the compound is 80 μM) or 5 μM (when the additive amount of the compound is 16 μM) in place of a compound was prepared.
(Formazan colour is commonly taken as a measure of viable cells.)

Setting [1] is: HEp-2, additive amount 80 μM, Hep2 cells, RS virus 1 MOI, cultured 72 hours, DMSO control = 100.
[2] abbreviates: HEp-2, additive amount 16 μM, Hep2 cells, RS virus 1 MOI, cultured 72 hours, DMSO control = 100.

Like-named read-outs stand apart in the source and are kept apart here.

For `COC(=O)C1=C(c2ccccc2)C(c2ccccc2)(C(C#N)C#N)C(C(=O)OC)=C1O` (stereo not drawn) [Compound 1, dimethyl 5-(dicyanomethyl)-2-hydroxy-4,5-diphenylcyclopenta-1,3-diene-1,3-dic arboxylate], the viability at 80 µM under setting [1] was 359%.
`COC(=O)[C@@H]1N[C@H](c2cccc([C@H]3N[C@@H](C(=O)OC)[C@H](c4ccccc4)[C@H]3[N+](=O)[O-])c2)[C@H]([N+](=O)[O-])[C@H]1c1ccccc1` [Compound 2, dimethyl 5,5′-(1,3-phenylene) (2R, 2′R, 3S, 3′S, 4R, 4′R, 5R, 5′R)-bis(4-nitro-3-phenylpyrrolidine-2-carboxylate)]: the “Survival Rate (%)” value (additive amount 80 μM, Hep2 cells, RS virus 1 MOI, cultured 72 hours, DMSO control = 100) amounted to 332%.
For `N[C@@H](C(=O)O)c1cccc2ccccc12` [Compound 4, (R)-2-amino-2-(naphthalene-1-yl) acetic acid], the viability at 80 µM under setting [1] worked out at 450%.
For the compound `c1ccc(NCCNc2ccccc2)cc1` [Compound 5, N1,N2-diphenylethane-1,2-diamine], the viability at 16 µM under setting [2] was 471%.
Turning to `COc1ccc(NCCNc2ccc(OC)cc2)cc1` [Compound 6, N1,N2-bis(4-methoxyphenyl)ethane-1,2-diamine], the viability at 16 µM (HEp-2, 72 h) is 472%.
With `Clc1ccc(NCCNc2ccc(Cl)cc2)cc1` [Compound 7, N1,N2-bis(4-chlorophenyl)ethane-1,2-diamine], the viability at 16 µM under setting [2] turned out to be 405%.
As to `O=P12c3ccccc3CN1[C@H](CNc1ccccc1)CCN2c1ccccc1` (stereo partly drawn) [Compound 8, (4S,11R)-1-phenyl-4-((phenylamino)methyl)-1,2,3,4,6-pentahydrobenzo[3,4][1,2]azaphosphoro [1,2-a][1,3,2]diazaphosphinine 11-oxide], under setting [2], the viability at 16 µM is 815%.
As to `CN1C(=O)[C@@](C[N+](=O)[O-])(c2c[nH]c3ccccc23)c2ccccc21` [Compound 9, (S)-3-(1H-indole-3-yl)-1-methyl-3-(nitromethyl)indoline-2-one], the viability at 80 µM under setting [1] is 276%.
As for `Cc1ccc2c(c1)[C@](C[N+](=O)[O-])(c1c[nH]c3c(C)cccc13)C(=O)N2C` [Compound 10, (S)-1,5-dimethyl-3-(7-methyl-1H-indole-3-yl)-3-(nitromethyl)indoline-2-one], the viability at 16 µM under setting [2] was determined as 294%.
With `c1ccc(CN2[C@H](c3cccc([C@@H]4N[C@@H](c5ccccc5)[C@H](c5ccccc5)N4Cc4ccccc4)n3)N[C@@H](c3ccccc3)[C@@H]2c2ccccc2)cc1` [Compound 11, 2,6-bis((2R,4S,5S)-1-benzyl-4,5-diphenylimidazolidine-2-yl)pyridine], the viability at 16 µM under setting [2] worked out at 274%.
Turning to `CC(C)(C)OC(=O)[C@H]1N[C@H](c2ccccc2)[C@@]2(C(=O)Nc3ccccc32)[C@@H]1c1ccc(Br)cc1` [Compound 12, tert-butyl(2′R,3R,4′S,5′S)-4′-(4-bromophenyl)-2-oxo-2′-phenylspiro[indoline-3,3′-pyrrolidine]-5′-carboxylate], the viability at 16 µM under setting [2] is 475%.
Turning to `Cc1ccc([C@@H]2[C@@H](C(=O)OC(C)(C)C)N[C@H](c3ccccc3)[C@@]23C(=O)Nc2ccccc23)cc1` [Compound 13, tert-butyl(2′R,3R,4′S,5′S)-2-oxo-2′-phenyl-4′-(p-tolyl)spiro[indoline-3,3′-pyrrolidine]-5′-carboxylate], the viability at 16 µM under setting [2] is 406%.
Same read-out and setting: the result for `C=CCN1C(=O)/C(=C/[N+](=O)[O-])c2ccccc21` [Compound 14, (E)-1-allyl-3-(nitromethylene)indoline-2-one] reads 409%; that for `Oc1c(Br)cc(Br)cc1/C=N/[C@H](c1ccccc1)[C@@H](c1ccccc1)N1Cc2ccccc2C1` [Compound 15, 2,4-dibromo-6-((E)-(((1R,2R)-2-(isoindoline-2-yl)-1,2-diphenylethyl)imino)methyl)phenol], 393%.
`O=C1CCCCCC1C(Nc1ccc(OC(F)(F)F)cc1)c1ccccc1` (stereo not drawn) [Compound 16, 2-(phenyl((4-(trifluoromethoxy)phenyl)amino)methyl)cycloheptane-1-one]: the viability at 16 µM under setting [2] came out at 294%.
Regarding `CCOC(=O)C1=CN2C(=O)CCN2[C@@H]1c1cccc(Cl)c1` [Compound 17, ethyl(R)-1-(3-chlorophenyl)-5-oxo-6,7-dihydro-1H,5H-pyrazolo[1,2-a]pyrazole-2-carboxylate], under setting [1], the viability at 80 µM worked out at 264%.
As for `CCOC(=O)C1=CN2C(=O)CCN2[C@@H]1c1ccc(OC)cc1` [Compound 18, ethyl(R)-1-(4-methoxyphenyl)-5-oxo-6,7-dihydro-1H,5H-pyrazolo[1,2-a]pyrazole-2-carboxylate], under setting [1], the viability at 80 µM was found to be 349%.
Consider `CCOC(=O)C1=CN2C(=O)CCN2[C@@H]1C1CCCCC1` [Compound 19, ethyl(R)-1-cyclohexyl-5-oxo-6,7-dihydro-1H,5H-pyrazolo[1,2-a]pyrazole-2-carboxylate], for which, under setting [2], the viability at 16 µM worked out at 209%.
Turning to `COC(=O)[C@H]1N[C@@H](c2ccccc2)[C@@H]([N+](=O)[O-])[C@@H]1c1ccccc1` [Compound 20, methyl(2S,3R,4S,5S)-4-nitro-3,5-diphenylpyrrolidine-2-carboxylate], the viability at 80 µM under setting [1] is 344%.
In the case of `c1ccc(-c2nnc(-c3ccccc3)o2)cc1` [Compound 21, 2,5-diphenyl-1,3,4-oxadiazole], under “HEp-2, 72 h”, the viability at 80 µM came out at 248%.
Regarding `CCOC(=O)C1=CN2C(=O)CC(C)(C)N2C1c1ccccc1` (stereo not drawn) [Compound 22, ethyl7,7-dimethyl-5-oxo-1-phenyl-6,7-dihydro-1H,5H-pyrazolo[1,2-a]pyrazole-2-carboxyl ate], the viability at 80 µM under setting [1] was 339%.

The values above are taken from US20170368015A1, “NOVEL COMPOUND AND ANTIVIRAL AGENT CONTAINING SAME AS ACTIVE INGREDIENT” (NATIONAL UNIVERSITY CORPORATION CHIBA UNIVERSITY, priority 2014, published 2017).
